# Data: publication PMC12207590, “Substrate Specificity of the Organic Cation Transporters MATE1 and MATE2K and Functional Overlap with OCT1 and OCT2” (Journal of Medicinal Chemistry, 2025)
# Where two headings read alike, the source gives them in different places.
# How the values were obtained:
# [1] = system: MATE1, MATE2K, OCT1, OCT2; test: Substrate specificity and overlap among the four transporters (ratio cutoff 2); assay type: cell-based, human
# MATE1 [2] = biological target: T1, MATE1 (Homo sapiens, UniProt Q96FL8); test: Uptake ratio in MATE1-overexpressing HEK293 cells vs empty vector (2.5 μM, 1 min, HPLC-MS/MS); assay type: cell-based; conditions: for MATE1 ratio in this study: Table S1; for MATE1 (uptake ratio): mean ratio of uptake in MATE1-overexpressing HEK293 cells vs empty vector
# T1 sequence (Q96FL8 1-570): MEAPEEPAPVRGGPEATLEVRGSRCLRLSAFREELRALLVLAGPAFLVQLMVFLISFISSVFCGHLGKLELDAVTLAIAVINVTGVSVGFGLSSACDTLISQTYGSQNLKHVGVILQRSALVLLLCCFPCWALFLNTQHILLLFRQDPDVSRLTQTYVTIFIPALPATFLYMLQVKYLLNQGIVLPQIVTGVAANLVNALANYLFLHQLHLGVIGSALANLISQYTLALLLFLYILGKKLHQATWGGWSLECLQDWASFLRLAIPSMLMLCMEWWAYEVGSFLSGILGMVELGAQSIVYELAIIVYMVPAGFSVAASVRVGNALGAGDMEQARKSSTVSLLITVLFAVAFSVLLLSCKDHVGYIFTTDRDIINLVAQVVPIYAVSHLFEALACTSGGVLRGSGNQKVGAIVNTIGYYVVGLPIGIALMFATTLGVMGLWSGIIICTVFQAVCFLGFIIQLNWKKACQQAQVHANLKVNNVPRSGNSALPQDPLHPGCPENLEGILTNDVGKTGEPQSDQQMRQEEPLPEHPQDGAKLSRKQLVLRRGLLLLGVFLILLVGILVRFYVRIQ
# MATE2K [3] = biological target: T2, MATE2K (Homo sapiens, UniProt Q86VL8); test: Uptake ratio in MATE2K-overexpressing HEK293 cells vs empty vector (2.5 μM, 1 min, HPLC-MS/MS); assay type: cell-based; conditions: for MATE2K ratio in this study: Table S1; for MATE2 (uptake ratio): mean ratio of uptake in MATE2K-overexpressing HEK293 cells vs empty vector
# T2 sequence (Q86VL8 1-566 isoform Q86VL8-3): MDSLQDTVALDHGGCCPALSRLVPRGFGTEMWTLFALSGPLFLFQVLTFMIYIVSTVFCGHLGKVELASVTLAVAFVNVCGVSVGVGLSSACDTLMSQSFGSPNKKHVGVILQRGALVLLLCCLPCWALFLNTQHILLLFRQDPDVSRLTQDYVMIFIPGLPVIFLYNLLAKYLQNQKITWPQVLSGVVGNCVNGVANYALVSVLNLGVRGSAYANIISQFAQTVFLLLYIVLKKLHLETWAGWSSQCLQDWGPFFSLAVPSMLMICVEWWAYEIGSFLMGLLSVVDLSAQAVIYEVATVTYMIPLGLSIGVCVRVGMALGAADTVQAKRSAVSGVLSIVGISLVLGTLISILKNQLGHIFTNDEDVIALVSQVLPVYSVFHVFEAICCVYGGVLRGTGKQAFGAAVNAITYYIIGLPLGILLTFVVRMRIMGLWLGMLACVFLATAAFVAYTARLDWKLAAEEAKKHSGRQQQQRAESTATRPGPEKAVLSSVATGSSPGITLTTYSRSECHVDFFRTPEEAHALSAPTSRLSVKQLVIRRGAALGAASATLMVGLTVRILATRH
# hCMEC [4] = test: TS DPH hCMEC (Table S2); assay type: cell-based, human; set-up: scale not given here
# hCMEC [5] = test: TS MDAI hCMEC (Table S2); assay type: cell-based, human; set-up: scale not given here
# MATE1 [6] = biological target: T1, MATE1; test: Concentration-dependent uptake (Michaelis-Menten) via MATE1 in HEK293 cells; conditions: for Km: read-out: MATE1 KM
# MATE2K [7] = biological target: T2, MATE2K; test: Concentration-dependent uptake (Michaelis-Menten) via MATE2K in HEK293 cells; conditions: HEK293, 1 min, net uptake; for Km: read-out: MATE2K KM
# [8] = fold uptake over empty vector, 2.5 μM, 1 min
# [9] = uptake ratio MATE1-overexpressing vs empty-vector HEK293 cells, 2.5 μM, 1 min, mean
# [10] = uptake ratio MATE2K-overexpressing vs empty-vector HEK293 cells, 2.5 μM, 1 min, mean
structure (smiles),measurement,setting,value
CCOC(=O)C1(c2ccccc2)CCN(C)CC1 [Pethidine],"Substrate specificity among MATE1, MATE2K, OCT1, OCT2",[1]; transport ratio cutoff of 2,MATE2K only
CC(CCc1ccc(O)cc1)NCCc1ccc(O)c(O)c1 (centres unmarked) [Dobutamine],MATE1 ratio,MATE1 [2]; [8],17.41
same,MATE2K ratio,MATE2K [3]; [8],2.77
same,TS DPH hCMEC,hCMEC [4]; Table S2,0.67
same,TS MDAI hCMEC,hCMEC [5]; Table S2,0.99
same,MATE1 Vmax,"MATE1 [6]; HEK293, 1 min, net uptake",2586 pmol × mg protein^–1 × min^–1
same,Km,"MATE1 [6]; HEK293, 1 min, net uptake",88.6 µM
same,MATE2K Vmax,MATE2K [7],493 pmol × mg protein^–1 × min^–1
same,Km,MATE2K [7],86.4 µM
CC(C)NCC(O)c1cc(O)cc(O)c1 (centres unmarked) [Orciprenaline],MATE1 ratio,MATE1 [2]; [8],34.88
same,MATE2K ratio,MATE2K [3]; [8],23.10
same,"Substrate specificity among MATE1, MATE2K, OCT1, OCT2",[1]; transport ratio cutoff of 2,All four transporters
CCCCCCN [Hexylamine],MATE1 ratio,MATE1 [2],1.21
same,MATE2K ratio,MATE2K [3],1.08
same,"Substrate specificity among MATE1, MATE2K, OCT1, OCT2",[1]; transport ratio cutoff of 2,OCT1 only
Cc1c(N)c(=O)n(-c2ccccc2)n1C [4-Aminoantipyrine],TS DPH hCMEC,hCMEC [4]; Table S2,1.09
same,TS MDAI hCMEC,hCMEC [5]; Table S2,1.01
same,MATE1 Vmax,"MATE1 [6]; HEK293, 1 min, net uptake",linear
same,MATE2K Vmax,MATE2K [7],linear
N=C(N)c1ccc2cc(OC(=O)c3ccc(N=C(N)N)cc3)ccc2c1 [Nafamostat],MATE1 ratio,MATE1 [2],5.45
same,MATE2K ratio,MATE2K [3],1.64
same,"Substrate specificity among MATE1, MATE2K, OCT1, OCT2",[1]; transport ratio cutoff of 2,MATE1 only
Cc1ncc(CO)c(CO)c1O [Pyridoxin],MATE1 ratio,MATE1 [2]; [8],2.33
same,MATE1,MATE1 [2]; [9],2.33
same,MATE2K ratio,MATE2K [3]; [8],1.18
same,MATE2,MATE2K [3]; [10],1.18
same,MATE1 Vmax,"MATE1 [6]; HEK293, 1 min, net uptake","10,014 pmol × mg protein^–1 × min^–1"
same,Km,"MATE1 [6]; HEK293, 1 min, net uptake",4230 µM
same,MATE2K Vmax,MATE2K [7],593 pmol × mg protein^–1 × min^–1
same,Km,MATE2K [7],495 µM
CC[C@@]1(O)C(=O)OCc2c1cc1n(c2=O)Cc2cc3c(CN(C)C)c(O)ccc3nc2-1 [Topotecan],MATE1 ratio in this study,"MATE1 [2]; 2.5 μM, 1 min",2.53
same,MATE1,MATE1 [2]; [9],2.53
same,MATE2K ratio in this study,"MATE2K [3]; 2.5 μM, 1 min",1.61
same,MATE2,MATE2K [3]; [10],1.61
same,"Substrate specificity among MATE1, MATE2K, OCT1, OCT2",[1]; transport ratio cutoff of 2,MATE1 only
"Nc1ccncc1 [Fampridine (4-aminopyridine), 4-aminopyridine]","Substrate specificity among MATE1, MATE2K, OCT1, OCT2",[1]; transport ratio cutoff of 2,OCT2 only
CNC[C@H](O)c1cccc(O)c1 [Phenylephrine],MATE1 ratio,MATE1 [2]; [8],13.78
same,MATE2K ratio,MATE2K [3]; [8],1.75
same,TS DPH hCMEC,hCMEC [4]; Table S2,0.76
same,TS MDAI hCMEC,hCMEC [5]; Table S2,1.03
same,MATE1 Vmax,"MATE1 [6]; HEK293, 1 min, net uptake","11,611 pmol × mg protein^–1 × min^–1"
same,Km,"MATE1 [6]; HEK293, 1 min, net uptake",474 µM
same,MATE2K Vmax,MATE2K [7],776 pmol × mg protein^–1 × min^–1
same,Km,MATE2K [7],434 µM
NCCc1ccc(O)cc1 [Tyramine],MATE1 ratio in this study,"MATE1 [2]; 2.5 μM, 1 min",10.06
same,MATE1,MATE1 [2]; [9],10.06
same,MATE2K ratio in this study,"MATE2K [3]; 2.5 μM, 1 min",1.39
same,MATE2,MATE2K [3]; [10],1.39
same,MATE1 Vmax,"MATE1 [6]; HEK293, 1 min, net uptake",5948 pmol × mg protein^–1 × min^–1
same,Km,"MATE1 [6]; HEK293, 1 min, net uptake",136 µM
same,MATE2K Vmax,MATE2K [7],2868 pmol × mg protein^–1 × min^–1
same,Km,MATE2K [7],1060 µM
C[C@H](CS)C(=O)N1CCC[C@H]1C(=O)O [Captopril],"Substrate specificity among MATE1, MATE2K, OCT1, OCT2",[1],no substrates of the four transporters
CC1(C)N=C(N)N=C(N)N1c1ccc(Cl)cc1 [Cycloguanil],MATE1 ratio in this study,"MATE1 [2]; 2.5 μM, 1 min",21.02
same,MATE1 ratio,MATE1 [2]; [8],21.02
same,MATE2K ratio in this study,"MATE2K [3]; 2.5 μM, 1 min",10.75
same,MATE2K ratio,MATE2K [3]; [8],10.75
same,"Substrate specificity among MATE1, MATE2K, OCT1, OCT2",[1]; transport ratio cutoff of 2,All four transporters
O=C1CCc2ccc(OCCCCN3CCN(c4cccc(Cl)c4Cl)CC3)cc2N1 [Aripiprazole],MATE1 ratio,MATE1 [2]; [8],1.32
same,MATE1 (uptake ratio),"MATE1 [2]; 2.5 μM, 1 min",1.32
same,MATE2K ratio,MATE2K [3]; [8],1.26
same,MATE2 (uptake ratio),"MATE2K [3]; 2.5 μM, 1 min",1.26
same,TS DPH hCMEC,hCMEC [4]; Table S2,0.72
same,TS MDAI hCMEC,hCMEC [5]; Table S2,0.68
CCCN1CCCC[C@H]1C(=O)Nc1c(C)cccc1C [Ropivacaine],MATE1 ratio,MATE1 [2]; [8],1.22
same,MATE1,MATE1 [2]; [9],1.22
same,MATE2K ratio,MATE2K [3]; [8],1.49
same,MATE2,MATE2K [3]; [10],1.49
same,TS DPH hCMEC,hCMEC [4]; Table S2,0.15
same,TS MDAI hCMEC,hCMEC [5]; Table S2,0.37
COCCn1c2c([n+](Cc3cnccn3)c1C)C(=O)c1ccccc1C2=O [Sepantronium],MATE1,MATE1 [2],6.15
same,MATE1 ratio,MATE1 [2],6.15
same,MATE2,MATE2K [3],9.45
same,MATE2K ratio,MATE2K [3],9.45
same,TS DPH hCMEC,hCMEC [4],1.01
same,TS MDAI hCMEC,hCMEC [5],0.99
same,MATE1 Vmax,MATE1 [6],304 pmol × mg protein^–1 × min^–1
same,Km,"MATE1 [6]; HEK293, 1 min, net uptake",80.9 µM
same,MATE2K Vmax,MATE2K [7],78.5 pmol × mg protein^–1 × min^–1
same,Km,MATE2K [7],8.54 µM
CCCNC(C)C(=O)Nc1c(C)csc1C(=O)OC (centres unmarked) [Articaine],MATE1 ratio,MATE1 [2]; [8],1.26
same,MATE1 (uptake ratio),"MATE1 [2]; 2.5 μM, 1 min",1.26
same,MATE2K ratio,MATE2K [3]; [8],1.59
same,MATE2 (uptake ratio),"MATE2K [3]; 2.5 μM, 1 min",1.59
same,TS DPH hCMEC,hCMEC [4]; Table S2,0.53
same,TS MDAI hCMEC,hCMEC [5]; Table S2,0.47
